# Assay results from patent publication US11807644B2 (PMV Pharmaceuticals, Inc., priority 2020, dated 2023).
# Target: T1, recombinant His-tag Y220C p53 DBD protein (Homo sapiens, UniProt P04637, Y220C)
# T1 construct: recombinant His-tag Y220C p53 DBD protein (amino acids #˜94-312)
# Assay: In vitro DNA binding activity assay (TR-FRET): binding of His-tag Y220C p53 DBD to biotin-labeled consensus DNA
# Type: biochemical
# Details: SC150 = concentration to increase DNA binding by […], His-tag Y220C p53 DBD, biotin-labeled consensus DNA
row,SMILES,Y220C SC150 (μM)
1,"COCC1(n2ccc(C(=O)NCc3nc(-c4cc5c(N[C@H]6CCN(C)C[C@H]6C)cccc5n4CC(F)(F)F)no3)c2)CC1 [Compound 505B, N-{[3-(4-{[(3R,4S)-1,3-dimethylpiperidin-4-yl]amino}-1-(2,2,2-trifluoroethyl)-1H-indol-2-yl)-1,2,4-oxadiazol-5-yl]methyl}-1-[1-(methoxymethyl)cyclopropyl]-1H-pyrrole-3-carboxamide]",* (* = 0 μM ≤ SC150 < 0.1 μM)
2,"COCC1(c2cc(C(=O)NCc3nc(-c4cc5c(N[C@@H]6CCOC[C@@H]6F)cccc5n4CC(F)(F)F)no3)cs2)CC1 [Compound 507B, N-{[3-(4-{[(3R,4R)-3-fluorooxan-4-yl]amino}-1-(2,2,2-trifluoroethyl)-1H-indol-2-yl)-1,2,4-oxadiazol-5-yl]methyl}-5-[1-(methoxymethyl)cyclopropyl]thiophene-3-carboxamide]",* (* = 0 μM ≤ SC150 < 0.1 μM)
3,"COCC(C)(C)c1cc(C(=O)NCc2nc(-c3cc4c(N[C@@H]5CCOC[C@@H]5F)cccc4n3CC(F)(F)F)no2)cs1 [Compound 508B, N-{[3-(4-{[(3R,4R)-3-fluorooxan-4-yl]amino}-1-(2,2,2-trifluoroethyl)-1H-indol-2-yl)-1,2,4-oxadiazol-5-yl]methyl}-5-(1-methoxy-2-methylpropan-2-yl)thiophene-3-carboxamide]",* (* = 0 μM ≤ SC150 < 0.1 μM)
4,"C[C@H]1CN(C)CC[C@H]1Nc1cccc2c1cc(-c1noc(CNC(=O)c3ccc(C(C)(C)O)s3)n1)n2CC(F)(F)F [Compound 509B, N-{[3-(4-{[(3S,4R)-1,3-dimethylpiperidin-4-yl]amino}-1-(2,2,2-trifluoroethyl)-1H-indol-2-yl)-1,2,4-oxadiazol-5-yl]methyl}-5-(2-hydroxypropan-2-yl)thiophene-2-carboxamide]",* (* = 0 μM ≤ SC150 < 0.1 μM)
5,"C[C@H]1CN(C)CC[C@H]1Nc1cccc2c1cc(-c1noc(CNC(=O)c3cnn(C(C)(C)C)c3)n1)n2CC(F)(F)F [Compound 510B, 1-tert-butyl-N-{[3-(4-{[(3S,4R)-1,3-dimethylpiperidin-4-yl]amino}-1-(2,2,2-trifluoroethyl)-1H-indol-2-yl)-1,2,4-oxadiazol-5-yl]methyl}-1H-pyrazole-4-carboxamide]",* (* = 0 μM ≤ SC150 < 0.1 μM)
6,"C[C@@H]1CN(C)CC[C@@H]1Nc1cccc2c1cc(-c1noc(CNC(=O)c3cnn(C(C)(C)C)c3)n1)n2CC(F)(F)F [Compound 511B, 1-tert-butyl-N-{[3-(4-{[(3R,4S)-1,3-dimethylpiperidin-4-yl]amino}-1-(2,2,2-trifluoroethyl)-1H-indol-2-yl)-1,2,4-oxadiazol-5-yl]methyl}-1H-pyrazole-4-carboxamide]",* (* = 0 μM ≤ SC150 < 0.1 μM)
7,"CC(C)(C)n1ccc(C(=O)NCc2nc(-c3cc4c(N[C@@H]5CCOC[C@H]5F)cccc4n3CC(F)(F)F)no2)c1 [Compound 512B, 1-tert-butyl-N-{[3-(4-{[(3S,4R)-3-fluorooxan-4-yl]amino}-1-(2,2,2-trifluoroethyl)-1H-indol-2-yl)-1,2,4-oxadiazol-5-yl]methyl}-1H-pyrrole-3-carboxamide]",* (* = 0 μM ≤ SC150 < 0.1 μM)
8,"C[C@@H]1CN(C)CC[C@@H]1Nc1cccc2c1cc(-c1noc(CNC(=O)c3ccn(C(C)(C)C)c3)n1)n2CC(F)(F)F [Compound 513B, 1-tert-butyl-N-{[3-(4-{[(3R,4S)-1,3-dimethylpiperidin-4-yl]amino}-1-(2,2,2-trifluoroethyl)-1H-indol-2-yl)-1,2,4-oxadiazol-5-yl]methyl}-1H-pyrrole-3-carboxamide]",* (* = 0 μM ≤ SC150 < 0.1 μM)
9,"C[C@H]1CN(C)CC[C@H]1Nc1cccc2c1cc(-c1noc(CNC(=O)c3ccn(C(C)(C)C)c3)n1)n2CC(F)(F)F [Compound 514B, 1-tert-butyl-N-{[3-(4-{[(3S,4R)-1,3-dimethylpiperidin-4-yl]amino}-1-(2,2,2-trifluoroethyl)-1H-indol-2-yl)-1,2,4-oxadiazol-5-yl]methyl}-1H-pyrrole-3-carboxamide]",* (* = 0 μM ≤ SC150 < 0.1 μM)
10,"COC[C@@H]1CCCN1c1nc(C(=O)NCc2nc(-c3cc4c(N[C@@H]5CCN(C)C[C@@H]5F)cccc4n3CC(F)(F)F)no2)cs1 [Compound 519B, N-{[3-(4-{[(3S,4R)-3-fluoro-1-methylpiperidin-4-yl]amino}-1-(2,2,2-trifluoroethyl)-1H-indol-2-yl)-1,2,4-oxadiazol-5-yl]methyl}-2-[(2S)-2-(methoxymethyl)pyrrolidin-1-yl]-1,3-thiazole-4-carboxamide]",* (* = 0 μM ≤ SC150 < 0.1 μM)
11,"COC[C@H]1CCCN1c1nc(C(=O)NCc2nc(-c3cc4c(N[C@@H]5CCN(C)C[C@@H]5F)cccc4n3CC(F)(F)F)no2)cs1 [Compound 520B, N-{[3-(4-{[(3S,4R)-3-fluoro-1-methylpiperidin-4-yl]amino}-1-(2,2,2-trifluoroethyl)-1H-indol-2-yl)-1,2,4-oxadiazol-5-yl]methyl}-2-[(2R)-2-(methoxymethyl)pyrrolidin-1-yl]-1,3-thiazole-4-carboxamide]",* (* = 0 μM ≤ SC150 < 0.1 μM)
12,CN1CC[C@@H](Nc2cccc3c2cc(-c2noc(CNC(=O)c4csc(N5CC6CC(C5)O6)n4)n2)n3CC(F)(F)F)[C@@H](F)C1 [Compound 525B],** (** = 0.1 μM ≤ SC150 < 0.5 μM)

# Results, then the compound that gave them:
row,Y220C SC150 (μM),SMILES
1,* (* = 0 μM ≤ SC150 < 0.1 μM),"CCc1cc(C(=O)NCc2nc(-c3cc4c(N[C@@H]5CCN(C)C[C@@H]5F)cccc4n3CC(F)(F)F)no2)on1 [Compound 521B, 3-ethyl-N-{[3-(4-{[(3S,4R)-3-fluoro-1-methylpiperidin-4-yl]amino}-1-(2,2,2-trifluoroethyl)-1H-indol-2-yl)-1,2,4-oxadiazol-5-yl]methyl}-1,2-oxazole-5-carboxamide]"
2,* (* = 0 μM ≤ SC150 < 0.1 μM),"CO[C@@H]1CCN(c2nc(C(=O)NCc3nc(-c4cc5c(N[C@@H]6CCN(C)C[C@@H]6F)cccc5n4CC(F)(F)F)no3)cs2)C1 [Compound 522B, N-{[3-(4-{[(3S,4R)-3-fluoro-1-methylpiperidin-4-yl]amino}-1-(2,2,2-trifluoroethyl)-1H-indol-2-yl)-1,2,4-oxadiazol-5-yl]methyl}-2-[(3R)-3-methoxypyrrolidin-1-yl]-1,3-thiazole-4-carboxamide]"
3,* (* = 0 μM ≤ SC150 < 0.1 μM),"CO[C@H]1CCN(c2nc(C(=O)NCc3nc(-c4cc5c(N[C@@H]6CCN(C)C[C@@H]6F)cccc5n4CC(F)(F)F)no3)cs2)C1 [Compound 523B, N-{[3-(4-{[(3S,4R)-3-fluoro-1-methylpiperidin-4-yl]amino}-1-(2,2,2-trifluoroethyl)-1H-indol-2-yl)-1,2,4-oxadiazol-5-yl]methyl}-2-[(3S)-3-methoxypyrrolidin-1-yl]-1,3-thiazole-4-carboxamide]"
4,* (* = 0 μM ≤ SC150 < 0.1 μM),"CN1CC[C@@H](Nc2cccc3c2cc(-c2noc(CNC(=O)c4ccc(C(C)(C)C)[nH]4)n2)n3CC(F)(F)F)[C@@H](F)C1 [Compound 524B, 5-tert-butyl-N-{[3-(4-{[(3S,4R)-3-fluoro-1-methylpiperidin-4-yl]amino}-1-(2,2,2-trifluoroethyl)-1H-indol-2-yl)-1,2,4-oxadiazol-5-yl]methyl}-1H-pyrrole-2-carboxamide]"
5,* (* = 0 μM ≤ SC150 < 0.1 μM),"CC(C)c1cc(C(=O)NCc2nc(-c3cc4c(N[C@@H]5CCN(C)C[C@@H]5F)cccc4n3CC(F)(F)F)no2)co1 [Compound 526B, N-{[3-(4-{[(3S,4R)-3-fluoro-1-methylpiperidin-4-yl]amino}-1-(2,2,2-trifluoroethyl)-1H-indol-2-yl)-1,2,4-oxadiazol-5-yl]methyl}-5-(propan-2-yl)furan-3-carboxamide]"
6,* (* = 0 μM ≤ SC150 < 0.1 μM),"CN1CC[C@@H](Nc2cccc3c2cc(-c2noc(CNC(=O)c4csc(N5CC6(COC6)C5)n4)n2)n3CC(F)(F)F)[C@@H](F)C1 [Compound 527B, N-{[3-(4-{[(3S,4R)-3-fluoro-1-methylpiperidin-4-yl]amino}-1-(2,2,2-trifluoroethyl)-1H-indol-2-yl)-1,2,4-oxadiazol-5-yl]methyl}-2-{2-oxa-6-azaspiro[3.3]heptan-6-yl}-1,3-thiazole-4-carboxamide]"
7,* (* = 0 μM ≤ SC150 < 0.1 μM),"CN1CC[C@@H](Nc2cccc3c2cc(-c2noc(CNC(=O)c4csc(N(C)C(C)(C)C)n4)n2)n3CC(F)(F)F)[C@@H](F)C1 [Compound 528B, 2-[tert-butyl(methyl)amino]-N-{[3-(4-{[(3S,4R)-3-fluoro-1-methylpiperidin-4-yl]amino}-1-(2,2,2-trifluoroethyl)-1H-indol-2-yl)-1,2,4-oxadiazol-5-yl]methyl}-1,3-thiazole-4-carboxamide]"
8,* (* = 0 μM ≤ SC150 < 0.1 μM),"CN1CC[C@@H](Nc2cccc3c2cc(-c2noc(CNC(=O)c4ccn(C(C)(C)C)n4)n2)n3CC(F)(F)F)[C@@H](F)C1 [Compound 529B, 1-tert-butyl-N-{[3-(4-{[(3S,4R)-3-fluoro-1-methylpiperidin-4-yl]amino}-1-(2,2,2-trifluoroethyl)-1H-indol-2-yl)-1,2,4-oxadiazol-5-yl]methyl}-1H-pyrazole-3-carboxamide]"
9,* (* = 0 μM ≤ SC150 < 0.1 μM),"COC(C)(C)c1nc(C(=O)NCc2nc(-c3cc4c(N[C@@H]5CCN(C)C[C@@H]5F)cccc4n3CC(F)(F)F)no2)cs1 [Compound 530B, N-{[3-(4-{[(3S,4R)-3-fluoro-1-methylpiperidin-4-yl]amino}-1-(2,2,2-trifluoroethyl)-1H-indol-2-yl)-1,2,4-oxadiazol-5-yl]methyl}-2-(2-methoxypropan-2-yl)-1,3-thiazole-4-carboxamide]"
10,* (* = 0 μM ≤ SC150 < 0.1 μM),"CN1CC[C@@H](Nc2cccc3c2cc(-c2noc(CNC(=O)c4csc(C(C)(C)CO)n4)n2)n3CC(F)(F)F)[C@@H](F)C1 [Compound 532B, N-{[3-(4-{[(3S,4R)-3-fluoro-1-methylpiperidin-4-yl]amino}-1-(2,2,2-trifluoroethyl)-1H-indol-2-yl)-1,2,4-oxadiazol-5-yl]methyl}-2-(1-hydroxy-2-methylpropan-2-yl)-1,3-thiazole-4-carboxamide]"
